Here are results for 15 compounds from ChEMBL document CHEMBL1136858, “Synthesis of hydroxycoumarins and hydroxybenzo[f]- or [h]coumarins as lipid peroxidation inhibitors” (Bioorg Med Chem Lett, 2009).

Each structure is given as a SMILES string. The source made the active and inactive calls. The calls are words filed in the database; no cut-off is given here.

Assay [1] deals with Radical scavenging activity. The assay is described as follows: Antioxidant activity assessed as DPPH radical scavenging activity at 0.05 mM after 20 mins. The class given is functional.
For the next assay, the system named is Glycine max. The experiment in a line: Inhibition of soybean lipoxygenase at 100 uM by UV absorbance based assay.
A short description of assay [2]: Antioxidant activity assessed as superoxide radical scavenging activity at 100 uM by nitroblue tetrazolium method. Type of assay: functional.
Assay [3] deals with Radical scavenging activity. The assay is described as follows: Antioxidant activity assessed as DPPH radical scavenging activity at 0.01 mM after 60 mins. Type of assay: functional.
Assay [4] relates to Radical scavenging activity. The assay is described as follows: Antioxidant activity assessed as DPPH radical scavenging activity at 0.01 mM after 20 mins. Type of assay: functional.
The nature of assay [5]: Antioxidant activity assessed as inhibition of AAPH-induced lipid peroxidation at 100 uM. Type of assay: functional.
Assay [6] has as its system Radical scavenging activity. The experiment in a line: Antioxidant activity assessed as DPPH radical scavenging activity at 0.05 mM after 60 mins. Type of assay: functional.
The subject of the next assay is Rattus norvegicus. The assay is described as follows: Antiinflammatory activity in rat assessed as inhibition of carrageenan-induced paw edema at 0.01 mmol/kg, ip after 3.5 hrs. Type of assay: functional.
Assay [7] in a line: Inhibition of soybean lipoxygenase by UV absorbance based assay. Details: species or system Glycine max.

Regarding `O=c1ccc2cc(O)c3c(c2o1)CCCC3`, the Activity in assay [1] came to 35%; in [3], 40%; in assay [4], 44%; in assay [6] it was 38%. For the same compound, the inhibition turned out to be 12% in the assay with Glycine max, 68% in [2] and 42% in [5].
As for `O=c1ccc2cccc(O)c2o1` [8-Hydroxycoumarin], the inhibition in vivo at 10 µmol/kg with Rattus norvegicus was 18%. The Activity turned out to be 31% in assay [1], 32% in assay [3], 33% in assay [4] and 30% in assay [6]. Further, the figures for the inhibition (in the assay with Glycine max; in assay [2]; in assay [5]) were 37%, 56% and 28%, respectively.
As for `CC(Cc1ccc(O)c(O)c1)C(C)Cc1ccc(O)c(O)c1` (stereo not drawn), the Activity came to 68% in assay [1], 83% in [3], 81% in assay [4] and 72% in [6].
Consider `O=C(O)/C=C/c1ccc(O)c(O)c1` [CAFFEIC ACID], for which inhibition in assay [7] was half-maximal at 600 µM (IC50). In assay [2], the inhibition amounted to 71%.
Regarding `O=c1ccc2ccc(O)cc2o1` [UMBELLIFERONE], the outcome (in the assay with Rattus norvegicus; in assay [1]; in [6]) was inactive. The compound further came in with a half-inhibitory concentration (IC50) in [7] of 43 µM. Besides, the inhibition in [2] stood at 65%; in assay [5] it was 83%. Moreover, the Activity in assay [3] and in assay [4] was 2% in each case.
Regarding `Cc1cc(O)cc2oc(=O)ccc12`, the Activity is 43% in [1], 54% in assay [3], 31% in assay [4] and 43% in [6]. Besides, the values for the inhibition (in the assay on Glycine max; in [2]; in [5]) were 27%, 61% and 30%, respectively.
With `O=c1ccc2ccccc2o1` [COUMARIN], the inhibition in vivo at 10 µmol/kg with Rattus norvegicus turned out to be 30%. The outcome in assay [1] and in [6] was inactive. This compound also returned an inhibition with Glycine max of 15%. In addition, the Activity in [3] was found to be 21%; in [4], 5%.
Turning to `O=c1ccc2cc(O)c3ccccc3c2o1`, the inhibition in vivo at 10 µmol/kg in the assay with Rattus norvegicus came out at 39%. Besides, the Activity in assay [1] turned out to be 65%; in assay [3] it was 89%; in [4], 77%; in assay [6], 72%. Besides, the IC50 in assay [7] was 100 µM. Further, the inhibition in [2] came out at 61%; in assay [5], 100%.
For `O=c1ccc2c(o1)c(O)cc1ccccc12`, the inhibition in vivo at 10 µmol/kg in the assay on Rattus norvegicus is 18%. Also, the Activity was 22% in [1], 54% in assay [3], 46% in assay [4] and 20% in assay [6]. Moreover, in the assay with Glycine max, the inhibition result was “inactive”. The inhibition in [2] is 79%; in assay [5], 100%.
As to `Cc1cc2oc(=O)ccc2cc1O`, the Activity in assay [1] came to 22%; in [3] it was 51%; in assay [4], 51%; in [6], 20%. Moreover, the inhibition is 3% in the assay with Glycine max, 54% in [2] and 24% in assay [5].
Consider `Cc1c(O)ccc2ccc(=O)oc12`, for which the Activity was 14% in [1], 27% in assay [3], 26% in assay [4] and 15% in assay [6]. Further, the inhibition came to 25% in the assay on Glycine max and 60% in assay [2]. Moreover, the inhibition entry in [5] is “inactive”.
Take `Cc1c(C)c2c(c(C)c1O)CCC(C)(C(=O)O)O2` (stereo not drawn): the inhibition in [5] stood at 73%.
On to `O=c1ccc2c(cc(O)c3ccccc32)o1`, for which the inhibition in vivo at 10 µmol/kg in the assay with Rattus norvegicus worked out at 15%. Also, the Activity came out at 28% in [1], 51% in assay [3], 55% in assay [4] and 31% in [6]. Besides, the inhibition was 38% in the assay on Glycine max and 57% in assay [5]. In addition, the inhibition entry in [2] was “inactive”.
`Cc1ccc2ccc(=O)oc2c1`: the inhibition in vivo at 10 µmol/kg in the assay with Rattus norvegicus came out at 55%. For the same compound, the outcome in assay [1] and in assay [6] was inactive. In the assay with Glycine max, the inhibition came out at 89%. The Activity in assay [3] and in assay [4] was 2% throughout.
As to `COc1ccc2c(c1)c(CC(=O)O)c(C)n2C(=O)c1ccc(Cl)cc1` [INDOMETHACIN], the inhibition in vivo at 10 µmol/kg in the assay with Rattus norvegicus was 47%.
